Test results: patent publication US20140271770A1, “Methods And Compositions For Treating Post-Operative Pain Comprising Clonidine” (WARSAW ORTHOPEDIC, INC., priority 2013, published 2014)

Test: 14 day pharmacokinetic study, clonidine strips implanted in intermuscular pockets, plasma clonidine by LC/MS/MS
Assay type: in vivo, beagle dogs
Settings: mannitol as excipient in the clonidine strips
Text: Clonidine strips were surgically implanted in intermuscular pockets in beagle dogs to evaluate the in vivo clonidine elution and plasma clonidine concentrations. Four male and four female dogs were divided into two groups of two (per sex). Group 1 received 6 strips of formulation 640-51 (5% clonidine HCl, 5% mannitol, 60:40 LCL 5A polymer, micronized API) and Group 2 received 6 strips of formulation 640-73 (4% clonidine HCl, 7.5% mannitol, 60:40 LCL 5A polymer, milled 25 micron API).
Blood was drawn at 30 minutes and 1, 2, 4, 8, and 24 hours post-implant. Blood was then drawn daily through day 7, and again at days 10 and 14. The blood was processed to plasma and the clonidine concentration in the plasma was determined by high performance liquid chromatography and tandem mass spectroscopy (LC/MS/MS).

OC[C@@H](O)[C@@H](O)[C@H](O)[C@H](O)CO [Mannitol]
effect on drug release within the first 72 hours: speeds up drug release
